Measured values published in patent publication US12427192B2, “Water soluble adjuvant and composition containing same” (Sumitomo Pharma Co., Ltd., priority 2019, dated 2025).

Columns and labels:
mouse TLR7 = biological target: T1, mouse TLR7 (Mus musculus, UniProt P58681); assay: Mouse TLR7 reporter gene assay (HEK-Blue mTLR7 cell line), Test 2; type: cell-based; conditions: half of maximal SEAP induction, 20-24-hour incubation, 0.1% DMSO
T1 construct: expresses full-length mouse TLR7 and secretory SEAP reporter gene; host or cells: HEK-Blue mTLR7 (HEK293-derived)
T1 sequence (P58681 27-1050): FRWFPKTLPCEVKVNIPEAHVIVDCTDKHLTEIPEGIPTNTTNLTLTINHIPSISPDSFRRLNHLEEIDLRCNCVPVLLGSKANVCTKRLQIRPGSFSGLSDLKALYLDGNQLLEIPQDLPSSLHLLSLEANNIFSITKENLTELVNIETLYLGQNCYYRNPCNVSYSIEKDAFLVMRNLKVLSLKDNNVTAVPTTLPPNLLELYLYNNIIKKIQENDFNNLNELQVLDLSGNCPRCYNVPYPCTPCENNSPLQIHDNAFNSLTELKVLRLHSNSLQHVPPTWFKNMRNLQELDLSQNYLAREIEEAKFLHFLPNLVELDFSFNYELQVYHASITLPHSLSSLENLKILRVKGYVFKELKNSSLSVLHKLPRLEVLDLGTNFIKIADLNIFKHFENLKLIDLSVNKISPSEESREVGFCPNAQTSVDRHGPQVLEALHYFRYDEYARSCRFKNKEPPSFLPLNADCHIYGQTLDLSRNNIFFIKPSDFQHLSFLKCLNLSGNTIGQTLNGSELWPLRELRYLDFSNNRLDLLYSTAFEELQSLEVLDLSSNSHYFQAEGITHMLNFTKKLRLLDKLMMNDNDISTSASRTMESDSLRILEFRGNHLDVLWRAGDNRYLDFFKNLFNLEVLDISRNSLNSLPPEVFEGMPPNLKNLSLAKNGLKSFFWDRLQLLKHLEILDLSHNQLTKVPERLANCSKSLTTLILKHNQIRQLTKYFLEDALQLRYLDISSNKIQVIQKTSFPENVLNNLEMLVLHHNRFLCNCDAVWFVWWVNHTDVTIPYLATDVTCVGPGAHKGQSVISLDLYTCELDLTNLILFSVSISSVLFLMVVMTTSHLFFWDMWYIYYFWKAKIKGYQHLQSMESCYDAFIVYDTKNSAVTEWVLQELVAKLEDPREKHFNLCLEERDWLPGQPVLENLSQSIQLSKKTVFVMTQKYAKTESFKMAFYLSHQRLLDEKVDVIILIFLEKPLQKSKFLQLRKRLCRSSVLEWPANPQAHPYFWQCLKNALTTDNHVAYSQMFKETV
Excerpt: Test 2 Mouse TLR7 Reporter Gene Assay
HEK-Blue™ mTLR7 cell line (Invivogen) is a stably co-transfected cell line which expresses full-length mouse TLR7 and secretory SEAP reporter gene under the transcriptional regulation of an NF-κB response element. The TLR7 expression of the cell line has been already tested by RT-PCR. Transfectants with stable expression were selected using the antibiotic blasticidin and Zeocin. TLR signaling leads to the translocation of NF-κB and the activation of the promoter results in expression of the SEAP gene. TLR7-specific activation was assessed by determining the level of SEAP produced following 20-24-hour incubation of the cells at 37° C. with each compound prepared in Examples and Reference examples in the presence of 0.1% (v/v) DMSO. The mouse TLR7 activity for the present compound was assessed by mouse TLR7 reporter gene assay, and the results are shown in Tables 5 and 6 as the compound concentration which produced half of the maximal level of SEAP induction (EC50).

[1] = tested on: HLA-A*24:02 transgenic mouse; assay: Test 20: in vivo adjuvant activity, vaccine o (Compound of formula 5), IFNγ ELISPOT; conditions: added to vaccine o; 0.4 nmol per body, twice; FIG. 25
Protocol: Evaluation of In Vivo Adjuvant Activity in HLA-A*24:02 Transgenic Mouse
The in vivo adjuvant activity of the compound of Example 1 was evaluated in the following procedure. To a vaccine prepared by mixing Compound of formula 5 prepared in Reference example 22 with a preliminarily-emulsified composition (hereinafter, referred to as “vaccine o”) was added the compound prepared in Example 1 to prepare a vaccine. The vaccine was administered to a HLA-A*24:02 transgenic mouse, and the adjuvant activity of the vaccine was evaluated by the method of testing antigen-specific CTL induction.
Specifically, Compound of formula 5 was dissolved in DMSO, and then diluted with water for injection to concentrations of Compound of formula 5 of 3 mg/mL. The prepared compound dilution was mixed with an equal volume of the preliminary emulsified composition prepared like Test 4 to give an emulsified product, vaccine o. Vaccine o was injected to mice intradermally at the tail base area in an amount for administering 300 μg of Compound of formula 5 per body. […] Then, after removal of the supernatant from the wells, stained spots on the ELISPOT plate were counted.

CCCCCNc1nc(N)nc(C)c1Cc1ccc(CN(C)CCOCCOCCOCCOCCO)cc1OC [Example 1, 1-(4-{[2-amino-4-methyl-6-(pentylamino)pyrimidin-5-yl]methyl}-3-methoxyphenyl)-2-methyl-5,8,11,14-tetraoxa-2-azahexadecan-16-ol·trifluoroacetate] was tested, and the EC50 (mouse TLR7) was 0.028 µM and the “CTL counts responsive to Peptide SEQ ID No. 2 compared with adding no compound” value [1] was “more”.

In the case of CCCCCNc1nc(N)nc(C)c1Cc1ccc(CNC)cc1OC [Reference example 12, 5-({2-methoxy-4-[(methylamino)methyl]phenyl}methyl)-6-methyl-N^4-pentylpyrimidine-2,4-diamine, reference compound], the EC50 (mouse TLR7) is reported as 0.015 µM.
